Target: T1, Human androgen receptor (HAR) (Homo sapiens, UniProt P10275)
T1 construct: made in house; host or cells: SF9 insect cells (baculovirus), lysate supernatant
T1 sequence (P10275 1-920): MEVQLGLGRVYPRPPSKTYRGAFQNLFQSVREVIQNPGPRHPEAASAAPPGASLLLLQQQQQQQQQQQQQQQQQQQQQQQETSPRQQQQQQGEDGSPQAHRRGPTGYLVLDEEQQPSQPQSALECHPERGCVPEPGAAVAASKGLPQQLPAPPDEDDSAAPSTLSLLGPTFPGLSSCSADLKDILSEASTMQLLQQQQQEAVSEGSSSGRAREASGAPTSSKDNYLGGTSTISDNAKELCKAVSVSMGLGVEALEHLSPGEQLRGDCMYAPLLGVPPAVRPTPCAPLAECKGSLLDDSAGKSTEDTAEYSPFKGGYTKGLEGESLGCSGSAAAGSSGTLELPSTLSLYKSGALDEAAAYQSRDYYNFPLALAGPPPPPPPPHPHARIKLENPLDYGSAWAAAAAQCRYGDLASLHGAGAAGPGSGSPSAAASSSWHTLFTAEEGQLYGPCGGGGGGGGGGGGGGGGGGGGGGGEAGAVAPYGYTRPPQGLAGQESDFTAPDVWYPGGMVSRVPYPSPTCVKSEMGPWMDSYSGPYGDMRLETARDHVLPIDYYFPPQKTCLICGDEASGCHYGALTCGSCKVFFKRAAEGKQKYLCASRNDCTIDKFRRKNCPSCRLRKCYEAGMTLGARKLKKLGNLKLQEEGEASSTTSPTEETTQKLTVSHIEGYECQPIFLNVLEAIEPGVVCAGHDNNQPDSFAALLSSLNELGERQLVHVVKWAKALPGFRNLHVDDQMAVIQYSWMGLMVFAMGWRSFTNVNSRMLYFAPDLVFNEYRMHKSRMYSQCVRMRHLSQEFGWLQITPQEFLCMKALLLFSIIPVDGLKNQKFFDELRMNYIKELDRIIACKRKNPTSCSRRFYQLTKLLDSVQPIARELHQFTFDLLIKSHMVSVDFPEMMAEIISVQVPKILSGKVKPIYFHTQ
Assay: Relative bond affinity (RBA), recombinant human androgen receptor, charcoal dextran technique
Type: binding
Conditions: 24 h at 0° C., Testosterone = 100
Method: The human recombinant receptor (HGR, HPR, HAR, HMR, HER) was used.
Human androgen receptor (HAR)
A supernatant of SF9 cells containing the recombinant human androgen receptor was obtained by the process described above for the progestogen receptor using the cDNA fragment containing the region coding for the human androgen receptor. The cells obtained were lysed in the lysis buffer (3). The supernatant was incubated at 0° C. for an incubation time of 24 hours with a constant concentration (T) of tritiated testosterone in the presence of increasing concentrations of either unlabelled testosterone (0 to 1000×10^-9 M), or the unlabelled product to be tested (1 to 25000×10^-9 M). The concentration of bound tritiated testosterone (B) was then measured in each incubate using the charcoal dextran adsorption technique.
Calculation of the relative bond affinity (RBA).
The following two curves were drawn: the percentage of bound tritiated hormone B/BO as a function of the logarithm of the concentration of unlabelled reference hormone or as a function of the logarithm of the concentration of unlabelled test product. The straight line of the following equation was determined: […]
The relative bond affinity (RBA) of the test product was determined by the equation: […]

RBA, Human androgen receptor: 0
RBA, Human androgen receptor (listed as product B): no or negligible RBA's
SMILES: C[C@H](O)C(=O)[C@@]1(C)CC[C@H]2[C@@H]3C[C@@H](O)C4=CC(=O)CCC4=C3CC[C@@]21C [Product B, [6β, 17β-(S)]-6-hydroxy-17-(2-hydroxy-1-oxopropyl)-17-methyl-Δ^4,9-estradiene-3-one]

From US5834452A, “1- or 6-hydroxylated steroids” (Roussel Uclaf, priority 1996, dated 1998)
